# Reference: US20030207813A1, “Retroviral protease inhibitor combinations” (priority 1995, published 2003)
# Tests used:
# NL4(P34-003) = experiment: Viral isolate resistance assay per Markowitz et al., NL4(P34-003); assay type: cell-based, HIV-1; conditions: Human immunodeficiency virus 1; Table 11; selected against Example 9, 34 passages
# Text: (§1) RF represents the HIV-1 strain HIV-LRF and RFR represents a mixture of resistant strains obtained by selection of RF against the compound of Example 1. RFR comprises a mixture of viral strains having protease genotypes of G48V (14/40 clones); G48V, V82A (18/40 clones); G48V, L90S (2/40 clones); G48V, 154T, V82A (1/40 clones); G48M (1/40 clones); G48V, Q61H (1/40 clones); V13I, G48V (1/40 clones); G48V, F53L, V82A (1/40 clones); and G48V, V82A, C95Y (1/40 clones). RFR2 represents a mixture of resistant strains obtained by cloning RFR by three rounds of growth at limiting dilution. RFR2 comprises a mixture of viral strains having protease genotypes of G48V, V82A (13/15 clones); G17E, G48V, V82A (1/15 clones); and G48V, V82A, N37D, N88D (1/15 clones). RFRR represents a mixture of resistant strains obtained by selection of RF against the compounds of Examples 1 and 2 and then cloning by three rounds of growth at limiting dilution. RFRR comprises a mixture of viral strains having protease genotypes of G48V, 154T, L63P, V82A (7/9 clones); G48V, 154T, L63P, V82A, N88S (1/9 clones); and G48V, 154T, L63P, G73M, V82A (1/9 clones). SF162 represents the HIV-1 strain SF-162 and SF162R represents a mixture of resistant strains obtained by selection of SF162 against the compound of Example 1. SF162R comprises a mixture of viral strains having protease genotypes of M461, F53L, L63P, A71V, N88D (2/3 clones); and M46I, F53L, L63P, A71V, N88D, Q92R (1/3 clones). 89-959 represents the HIV-1 strain 89-959 and 89-959R represents a mixture of resistant strains obtained by selection of 89-959 against the compound of Example 2. 89-959R comprises a mixture of viral strains having protease genotypes of N88S (4/5 clones); and D25N, T26A, D30N, D37N, R41K, G73D, R87K, N88S (1/4 clones). NL4 represents the HIV-1 strain HIV-1NL4-3. NL4(G48V) represents a strain having a synthetically generated site-directed mutation in the protease from glycine to valine at amino acid position number 48. […]
# NL4(R8Q,M46I) = experiment: Viral isolate resistance assay per Markowitz et al., NL4(R8Q,M46I); assay type: cell-based, HIV-1; conditions: Human immunodeficiency virus 1, read-out: Virus Isolate (EC50 nM) NL4(R8O, M46I)
# Text: as §1
smiles,measurement,setting,value
"CC(C)(C)NC(=O)[C@@H]1CN(Cc2cccnc2)CCN1C[C@@H](O)C[C@@H](Cc1ccccc1)C(=O)N[C@H]1c2ccccc2C[C@H]1O [Example 5, N-(2(R)-Hydroxy-1(S)-indanyl)-2(R)-phenylmethyl-4(S)-hydroxy-5-(1-(4-(3-pyridylmethyl)-2(S)-N′-(t-butylcarboxamido)-piperazinyl))-pentaneamide]",EC50,NL4(P34-003),400 nM
same,EC50,"NL4(R8Q,M46I)",240 nM
